The results in this text go back to patent US20190151274A1, “COMPOUND FOR USE IN THE TREATMENT OF A BLOOD VESSEL DISEASE” (Universitaet Potsdam, priority 2017, published 2019).

The test system of this assay is ALK1 mutant zebrafish. The assay is described as follows: Treatment of ALK1 mutant zebrafish, microscopic images of the lateral dorsal aorta. The class given is in vivo. The settings on record: 0.3 μM ATRA, 24-51 hours after insemination; control 0.1% DMSO; FIG. 5. Here is the method: The zebrafish ALK1 mutant is in a gene that is defective in some patients that suffer from HHT (hereditary hemorrhagic telangiectasia). The ALK1 mutant phenotype is an enlarged lateral dorsal aorta (LDA).
The treatment with the different active ingredients took place, between 24-51 hours after insemination of zebrafish eggs. The treatment was performed with 0.1% DMSO (first row) and 0.3 μM ATRA (second row).

With `CC1=C(/C=C/C(C)=C/C=C/C(C)=C/C(=O)O)C(C)(C)CCC1` [ATRA, all-trans retinoic acid], the “overgrowth of the aorta (enlarged lateral dorsal aorta) in the ALK1 mutant” value is listed as “suppressed”.
